Data published in patent US7943795B2, “Vitamin D receptor modulators” (Eli Lilly and Company, priority 2004, dated 2011).

Experiments:
[1] = system: IL-10 production in PBMCs; test: IL-10 induction assay; assay type: cell-based; conditions: PBMC; TPA/PHA stimulated human PBMCs, IL-10 in supernatant by immunoassay
Source text: 7. The IL-10 induction assay is described in the “Assay” section of the Description, infra.
The IL-10 Induction Assay
This is an in vitro efficacy assay for psoriasis, abscess and adhesion. Psoriasis involves both keratinocytes and immune cells. IL-10 is a unique cytokine because it is anti-inflammatory and immunosuppressive. This assay tells us whether a VDRM is able to function as an agonist in PBMCs (primary blood mononuclear cells) or not. A lower EC50 value is desirable in this assay since a compound with a lower EC50 value will be a better agonist in PBMCs. An acceptable test result is an EC50 value of less than 200 nM. Preferred assay results are EC50 values of less than 100 nM.
Isolation of Peripheral Blood Mononuclear Cells (PBMCs):
Collect 50 ml of human blood and dilute with media, RPMI-1640. Add diluted blood to sterile tubes with ficol. Centrifuge the tubes. Discard the top layer and collect the cells from middle layer. Divide all cells into four tubes and add media. Centrifuge. Aspirate off media and resuspend the cells. Collect all cells. Centrifuge at 1200 rpm for 10 m. Resuspend the cells in RPMI-1640 with 2% FBS and then count cells.
Stimulation of PBMC: Prepare TPA in DMSO. Dissolve PHA in water. Plate TPA/PHA treated PBMCs in well plates. Incubate the cells.
Treatment: Prepare all compound dilutions in plain RPMI-1640 media. Add diluted compound and incubate. Sample Collection and assay: Remove all the cells by centrifugation and assay the supernatant for IL-10 by immunoassay using anti-human IL-10 antibody coated beads, as described by the manufacturer (Linco Research Inc., St. Charles, Mo.).

[2] = system: KERtr cells (Human skin keratinocyte); test: Keratinocyte proliferation assay; assay type: cell-based; conditions: 72 hr, BrdU incorporation, read-out: Keranocyte Proliferation IC50
Protocol: 6. The keratinocyte proliferation assay is described in the “Assay” section of the Description, infra.
The Keratinocyte Proliferation Assay
This Assay is indicative for the treatment of psoriasis. An acceptable test result is IC50 value of less than or equal to 300 nM. Preferred assay results are IC50 values of less than 100 nM.
KERtr cells (Human skin keratinocyte are transformed with a retrovirus vector, obtained from ATCC, then are plated in 96-well flat-bottomed plates (3000 cells/well) in 100 μl keratinocyte serum free medium supplemented with bovine pituitary extract in the absence of EGF (Life Technologies, Rockville, Md.) and are incubated at 37° C. for two days. The cells are treated with various concentrations of VDR ligands (ten-fold serial dilution from 10,000 nM to 0.1 nM in triplicate), dissolved in 100 μl keratinocyte serum free medium supplemented with bovine pituitary extract in the absence of EGF and are incubated at 37° C. for 72 hr. BrdU (5-bromo-2′-deoxyuridine) incorporation is analyzed as a measure of DNA replication (Cell proliferation ELISA kit, Roche Diagnostics, Indianapolis, Ind.) and absorbance is measured at […]. Potency values (IC50) values were determined as the concentration (nM) of compound that elicited a half-maximal response.

SMILES	IC50 [1]	IC50 [2]
CCC(CC)(c1ccc(OCC(=O)C(C)(C)C)c(C)c1)c1ccc2cc(C(=O)O)ccc2c1 [Ex. 1, 6-{1-[4-(3,3-dimethyl-2-oxobutoxy)-3-methylphenyl]-1-ethylpropyl}naphthalene-2-carboxylic acid]	76 nM	653 nM
CCC(CC)(c1ccc(OCC(=O)C(C)(C)C)c(C)c1)c1ccc2cc(C(=O)NCC(=O)O)ccc2c1 [Ex. 3, [(6-{1-[4-(3,3-Dimethyl-2-oxo-butoxy)-3-methylphenyl]-1-ethylpropyl}naphthalene-2-carbonyl)amino]acetic acid]	–	2 nM
CCC(CC)(c1ccc(OCC(=O)C(C)(C)C)c(C)c1)c1ccc2cc(C(=O)N(C)C)ccc2c1 [Ex. 4, 6-{1-[4-(3,3-dimethyl-2-oxobutoxy)-3-methylphenyl]-1-ethylpropyl}naphthalene-2-carboxylic acid dimethylamide]	–	> 1000 nM
CCC(CC)(c1ccc(OCC(=O)C(C)(C)C)c(C)c1)c1ccc2cc(C(=O)N(C)CC(=O)O)ccc2c1 [Ex. 5, [(6-{1-[4-(3,3-Dimethyl-2-oxobutoxy)-3-methylphenyl]-1-ethylpropyl}naphthalene-2-carbonyl)methylamino]acetic acid]	5 nM	24 nM
